Experimental data: the NIST ThermoML archive (doi:10.1021/je900407u)
Numbers after ± are expanded uncertainties.

Assay: isobaric coefficient of expansion
Details: Liquid, Micro DSCII

CCCC[n+]1ccn(C)c1.O=S(=O)([N-]S(=O)(=O)C(F)(F)F)C(F)(F)F
isobaric coefficient of expansion
Details | 5000 kPa | 10000 kPa | 15000 kPa | 20000 kPa | 25000 kPa | 30000 kPa | 35000 kPa | 40000 kPa | 45000 kPa | 50000 kPa
278.15 K | 0.000672 ± 1.6e-05 1/K | 0.000661 ± 1.6e-05 1/K | 0.000651 ± 1.6e-05 1/K | 0.000643 ± 1.6e-05 1/K | 0.000632 ± 1.5e-05 1/K | 0.000627 ± 1.5e-05 1/K | 0.000618 ± 1.5e-05 1/K | 0.000612 ± 1.5e-05 1/K | 0.000602 ± 1.5e-05 1/K | 0.000594 ± 1.5e-05 1/K
288.15 K | 0.000665 ± 1.6e-05 1/K | 0.000656 ± 1.6e-05 1/K | 0.000646 ± 1.6e-05 1/K | 0.000638 ± 1.6e-05 1/K | 0.000632 ± 1.5e-05 1/K | 0.000622 ± 1.5e-05 1/K | 0.000615 ± 1.5e-05 1/K | 0.000606 ± 1.5e-05 1/K | 0.000599 ± 1.5e-05 1/K | 0.000594 ± 1.5e-05 1/K
298.15 K | 0.000662 ± 1.6e-05 1/K | 0.000653 ± 1.6e-05 1/K | 0.000642 ± 1.6e-05 1/K | 0.000633 ± 1.6e-05 1/K | 0.000626 ± 1.5e-05 1/K | 0.000616 ± 1.5e-05 1/K | 0.000607 ± 1.5e-05 1/K | 0.000599 ± 1.5e-05 1/K | 0.000592 ± 1.5e-05 1/K | 0.000586 ± 1.4e-05 1/K
308.15 K | 0.000657 ± 1.6e-05 1/K | 0.000647 ± 1.6e-05 1/K | 0.000636 ± 1.6e-05 1/K | 0.000627 ± 1.5e-05 1/K | 0.000617 ± 1.5e-05 1/K | 0.00061 ± 1.5e-05 1/K | 0.000602 ± 1.5e-05 1/K | 0.000595 ± 1.5e-05 1/K | 0.000586 ± 1.4e-05 1/K | 0.000578 ± 1.4e-05 1/K
318.15 K | 0.00065 ± 1.6e-05 1/K | 0.000646 ± 1.6e-05 1/K | 0.000634 ± 1.6e-05 1/K | 0.000623 ± 1.5e-05 1/K | 0.000614 ± 1.5e-05 1/K | 0.000605 ± 1.5e-05 1/K | 0.000597 ± 1.5e-05 1/K | 0.000588 ± 1.4e-05 1/K | 0.000581 ± 1.4e-05 1/K | 0.000573 ± 1.4e-05 1/K
328.15 K | 0.000665 ± 1.6e-05 1/K | 0.000649 ± 1.6e-05 1/K | 0.000636 ± 1.6e-05 1/K | 0.000625 ± 1.5e-05 1/K | 0.000614 ± 1.5e-05 1/K | 0.000603 ± 1.5e-05 1/K | 0.000595 ± 1.5e-05 1/K | 0.000582 ± 1.4e-05 1/K | 0.000578 ± 1.4e-05 1/K | 0.000569 ± 1.4e-05 1/K
338.15 K | 0.000646 ± 1.6e-05 1/K | 0.000635 ± 1.6e-05 1/K | 0.000625 ± 1.5e-05 1/K | 0.000615 ± 1.5e-05 1/K | 0.000605 ± 1.5e-05 1/K | 0.000597 ± 1.5e-05 1/K | 0.000587 ± 1.4e-05 1/K | 0.00058 ± 1.4e-05 1/K | 0.000573 ± 1.4e-05 1/K | 0.000566 ± 1.4e-05 1/K
348.15 K | 0.000653 ± 1.6e-05 1/K | 0.000639 ± 1.6e-05 1/K | 0.000623 ± 1.5e-05 1/K | 0.000613 ± 1.5e-05 1/K | 0.000604 ± 1.5e-05 1/K | 0.000595 ± 1.5e-05 1/K | 0.000586 ± 1.4e-05 1/K | 0.000578 ± 1.4e-05 1/K | 0.000569 ± 1.4e-05 1/K | 0.000563 ± 1.4e-05 1/K

CCCCn1cc[n+](C)c1.[F][Sb-]([F])([F])([F])([F])[F] [1-butyl-3-methylimidazolium hexafluoroantimonate]
isobaric coefficient of expansion
Details | 5000 kPa | 10000 kPa | 15000 kPa | 20000 kPa | 25000 kPa | 30000 kPa | 35000 kPa | 40000 kPa | 45000 kPa | 50000 kPa
278.15 K | 0.000636 ± 1.6e-05 1/K | 0.000627 ± 1.5e-05 1/K | 0.000619 ± 1.5e-05 1/K | 0.000614 ± 1.5e-05 1/K | 0.000607 ± 1.5e-05 1/K | 0.0006 ± 1.5e-05 1/K | 0.000593 ± 1.5e-05 1/K | 0.000589 ± 1.4e-05 1/K | 0.000582 ± 1.4e-05 1/K | 0.000575 ± 1.4e-05 1/K
288.15 K | 0.00063 ± 1.5e-05 1/K | 0.000621 ± 1.5e-05 1/K | 0.000614 ± 1.5e-05 1/K | 0.000609 ± 1.5e-05 1/K | 0.000603 ± 1.5e-05 1/K | 0.000596 ± 1.5e-05 1/K | 0.000589 ± 1.4e-05 1/K | 0.000582 ± 1.4e-05 1/K | 0.000575 ± 1.4e-05 1/K | 0.000573 ± 1.4e-05 1/K
298.15 K | 0.000624 ± 1.5e-05 1/K | 0.000619 ± 1.5e-05 1/K | 0.000609 ± 1.5e-05 1/K | 0.000602 ± 1.5e-05 1/K | 0.000597 ± 1.5e-05 1/K | 0.000588 ± 1.4e-05 1/K | 0.000581 ± 1.4e-05 1/K | 0.000576 ± 1.4e-05 1/K | 0.000571 ± 1.4e-05 1/K | 0.000566 ± 1.4e-05 1/K
308.15 K | 0.00062 ± 1.5e-05 1/K | 0.00061 ± 1.5e-05 1/K | 0.000604 ± 1.5e-05 1/K | 0.000596 ± 1.5e-05 1/K | 0.000589 ± 1.4e-05 1/K | 0.000583 ± 1.4e-05 1/K | 0.000576 ± 1.4e-05 1/K | 0.000571 ± 1.4e-05 1/K | 0.000563 ± 1.4e-05 1/K | 0.000558 ± 1.4e-05 1/K
318.15 K | 0.000612 ± 1.5e-05 1/K | 0.000609 ± 1.5e-05 1/K | 0.000599 ± 1.5e-05 1/K | 0.000591 ± 1.4e-05 1/K | 0.000584 ± 1.4e-05 1/K | 0.000577 ± 1.4e-05 1/K | 0.00057 ± 1.4e-05 1/K | 0.000564 ± 1.4e-05 1/K | 0.000557 ± 1.4e-05 1/K | 0.00055 ± 1.3e-05 1/K
328.15 K | 0.000609 ± 1.5e-05 1/K | 0.000601 ± 1.5e-05 1/K | 0.000595 ± 1.5e-05 1/K | 0.000589 ± 1.4e-05 1/K | 0.00058 ± 1.4e-05 1/K | 0.000573 ± 1.4e-05 1/K | 0.000566 ± 1.4e-05 1/K | 0.000559 ± 1.4e-05 1/K | 0.000553 ± 1.4e-05 1/K | 0.000547 ± 1.3e-05 1/K
338.15 K | 0.000607 ± 1.5e-05 1/K | 0.000599 ± 1.5e-05 1/K | 0.000593 ± 1.5e-05 1/K | 0.000585 ± 1.4e-05 1/K | 0.000575 ± 1.4e-05 1/K | 0.000569 ± 1.4e-05 1/K | 0.000563 ± 1.4e-05 1/K | 0.000556 ± 1.4e-05 1/K | 0.000549 ± 1.3e-05 1/K | 0.000545 ± 1.3e-05 1/K
348.15 K | 0.000602 ± 1.5e-05 1/K | 0.000597 ± 1.5e-05 1/K | 0.000588 ± 1.4e-05 1/K | 0.000579 ± 1.4e-05 1/K | 0.000574 ± 1.4e-05 1/K | 0.000567 ± 1.4e-05 1/K | 0.000562 ± 1.4e-05 1/K | 0.000555 ± 1.4e-05 1/K | 0.000549 ± 1.3e-05 1/K | 0.000542 ± 1.3e-05 1/K
